Paper PMC12655529, “Serendipitous Hinge Modulation Hypothetically Reprograms Caerin 1.1-LC Antibacterial Mechanism and Gram-Negative Selectivity” (Pharmaceutics, 2025)
pIC50: −log10 of the molar value. ≈ marks a conversion by molar mass, not a printed value. Read-outs that look alike come from different tables or passages of the source. Square brackets hold non-standard residues; d marks the D form. Ends that are not written are not given here. Peptide text beside a SMILES is read from it.

Legend:
E. coli (ATCC-BAA 2340) = assay type: cell-based, Escherichia coli
Procedure: The peptide sensitivity was determined in different salt- and serum-containing environments. Bacterial strains were prepared following the MIC detection protocol described previously. To evaluate peptide sensitivity under physiological conditions, various concentrations of salt ions (150 mM NaCl, 4.5 mM KCl, 2 mM CaCl2, 1 mM MgCl2, 8 µM ZnCl2, 6 µM NH4Cl, or 4 µM FeCl3) and serum (10% FBS) were prepared in McCartney bottles prior to the addition of bacterial suspensions. The subcultured bacterial suspensions were then introduced to these modified media conditions. For MIC determination, the treated bacterial suspensions were diluted and dispensed into 96-well plates containing peptide solutions at graded concentrations. This assay allowed for the detection of potential alterations in MIC values, serving as an indicator of peptide sensitivity under different physiological conditions. All experiments were independently repeated three times, each with three replicates.

[1] = tested on: Acinetobacter baumannii ATCC BAA-747; assay type: cell-based
Procedure: (§2) The antimicrobial activities of the peptides were evaluated by determining their minimal inhibitory concentration (MIC) and minimal bactericidal concentration (MBC) values following reported protocols [20]. The tested microorganisms included seven Gram-negative bacterial strains (Escherichia coli ATCC 8739, E. coli ATCC-BAA 2340, E. coli NCTC 13846, Klebsiella pneumoniae ATCC 43816, K. pneumoniae ATCC BAA-2342, Pseudomonas aeruginosa ATCC 9027, Acinetobacter baumannii ATCC BAA-747), three Gram-positive bacterial strains (Staphylococcus aureus ATCC 6538, Enterococcus faecalis NCTC 12697, MRSA NCTC 12493, and the fungal strain Candida albicans ATCC 10231. For the assay, each bacterial strain was cultured overnight at 37 °C in 100 mL of medium in a flask. The cultures were then subcultured to reach the logarithmic growth phase and diluted to 5 × 10^5 CFU/mL. Peptide samples were serially diluted two-fold in microplates, with concentrations ranging from 128 μM to 1 μM. The diluted bacterial suspensions were mixed with the peptide solutions and incubated overnight at 37 °C. The MIC values were determined by measuring the absorbance of each well using a Synergy HT plate reader (Agilent, Cheshire, UK). For MBC determination, aliquots from wells showing no visible growth were inoculated onto agar plates to assess bacterial viability. Each experiment was repeated independently three times and conducted in three independent replicates.

[2] = tested on: K. pneumoniae ATCC BAA-2342; assay type: cell-based, Klebsiella pneumoniae
Procedure: as §2

Gram-negative bacteria = test: Geometric mean MIC and therapeutic index, Gram-negative; assay type: cell-based; conditions: geometric mean of MICs
E. coli ATCC BAA-2340 = assay type: cell-based, Escherichia coli
Procedure: as §2

[3] = tested on: Pseudomonas aeruginosa ATCC 9027; assay type: cell-based
E. coli NCTC 13846 = assay type: cell-based, Escherichia coli
Procedure: as §2

horse red blood cells = test: Haemolysis assay; assay type: cell-based; conditions: concentration inducing 10% haemolysis of horse erythrocytes; 4% (v/v) in PBS, 2 h, 37 °C, absorbance 570 nm; no haemolysis at maximum testing concentration (128 μM) recorded as 256 μM
Procedure: The peptide cytotoxicity against mammalian erythrocytes was evaluated by haemolysis assay on horse red blood cells (E&O Laboratories Ltd., Falkirk, UK). Fresh horse blood was washed three times with PBS and resuspended to a final concentration of 4% (v/v) in PBS. The diluted blood suspension was then mixed with peptide solutions at varying concentrations and incubated for 2 h at 37 °C. Red blood cell suspensions treated with 0.1% Triton X-100 and PBS were used as controls. The Triton X-100-treated suspension was the positive control (for 100% haemolysis), while the PBS-treated suspension was the blank control. Following incubation, the mixtures were centrifuged at 1000× g for 10 min to separate erythrocytes from the supernatant. The absorbance of the supernatants was detected at 570 nm. The percentage haemolysis was calculated by following the equationPercentage Haemolysis = (AbsSample − AbsBlank)/(AbsPositive − AbsBlank) × 100%

[4] = tested on: Enterococcus faecalis NCTC 12697; assay type: cell-based
Procedure: as §2

Gram-positive bacteria = test: Geometric mean MIC and therapeutic index, Gram-positive; assay type: cell-based; conditions: geometric mean of MICs
[5] = tested on: Klebsiella pneumoniae ATCC 43816; assay type: cell-based
Procedure: as §2

[6] = tested on: Staphylococcus aureus ATCC 6538; assay type: cell-based
Procedure: as §2

[7] = tested on: Escherichia coli ATCC 8739; assay type: cell-based
Procedure: as §2

[8] = tested on: HEK 293 human embryonic kidney cells; assay type: cell-based
Procedure: (§1) The peptide’s cytotoxicity against normal cell lines was detected by the MTT assay. Following resuscitation from cryopreservation (−80 °C), the cell line underwent multiple passages to ensure viability and adaptation. Cells were then seeded into 96-well plates and maintained at 37 °C in a 5% CO2 humidified atmosphere for 24 h to achieve proper adherence. After incubation, cells were serum-starved for 4 h using foetal bovine serum (FBS)-free medium (ThermoFisher, Waltham, MA, USA) to synchronise cell cycle progression. Peptide solutions were prepared at concentrations ranging from 128 μM to 1 μM (serial two-fold dilutions) and applied to the cells. Following peptide treatment, 10 μL of MTT (3-(4,5-dimethylthiazol-2-yl)-2,5-diphenyltetrazolium bromide) solution (5 mg/mL in PBS) was added to each well and incubated for 2 h at 37 °C. The medium was then carefully aspirated, and 100 μL of DMSO was added to dissolve the formazan crystals. Absorbance was measured at 570 nm using a microplate reader (Agilent, Cheshire, UK), with a reference wavelength of 630 nm to account for background interference. Experiments were conducted in triplicate and repeated three independent times.

MRSA NCTC 12493 = assay type: cell-based, Staphylococcus aureus
Procedure: as §2

[9] = tested on: TNF-α secretion of LPS-stimulated RAW 264.7 cells; test: LPS neutralisation assay (TNF-α ELISA); assay type: cell-based, murine; conditions: RAW 264.7, 100 ng/mL LPS, 24 h, peptide and hydrocortisone at the same concentration (hydrocortisone 10 μg/mL), LPS alone approximately 100 ng/mL
Procedure: Murine macrophage RAW 264.7 cells were cultured in 6-well plates at a density of 5 × 10^5 cells per well and allowed to adhere for 24 h at 37 °C in a 5% CO2 humidified incubator. Cells were then stimulated with 100 ng/mL LPS in the presence or absence of test peptides at varying concentrations (typically 1–100 μM). Hydrocortisone (10 μg/mL) served as the positive control for anti-inflammatory activity. After 24 h of incubation, cell culture supernatants were collected and centrifuged at 300× g for 10 min to remove cellular debris. Tumour necrosis factor-alpha (TNF-α) secretion was quantified using a mouse TNF-α ELISA Development Kit (ThermoFisher Scientific, Waltham, MA, USA) according to the manufacturer’s protocol.

[10] = tested on: Galleria mellonella larvae; test: In vivo toxicity in larvae; conditions: uninfected G. mellonella larvae, injection at 1×, 2×, 4× MIC, n = 10 per group, observed five days
[11] = tested on: HaCaT human keratinocytes; assay type: cell-based; conditions: 24 h
Procedure: as §1

[12] = tested on: HMEC-1 human microvascular endothelial cells; assay type: cell-based; conditions: 24 h
Procedure: as §1

[13] = tested on: MRC-5 human embryonic lung fibroblasts; assay type: cell-based; conditions: 24 h
Procedure: as §1

[14] = tested on: RAW 264.7 murine macrophages; assay type: cell-based; conditions: 24 h
Procedure: as §1

[15] = first value of MIC/MBC cell, 5 × 10^5 CFU/mL, overnight 37 °C, absorbance
[16] = second value of MIC/MBC cell, agar plating

Molecule	MIC, FBS (E. coli (ATCC-BAA 2340); ATCC-BAA 2340) [µM]	MIC, Fe^3+ (E. coli (ATCC-BAA 2340); ATCC-BAA 2340) [µM]	MIC, K^+ (E. coli (ATCC-BAA 2340); ATCC-BAA 2340) [µM]	MIC, Mg^2+ (E. coli (ATCC-BAA 2340); ATCC-BAA 2340) [µM]	MIC, NH4^+ (E. coli (ATCC-BAA 2340); ATCC-BAA 2340) [µM]	MIC, Na^+ (E. coli (ATCC-BAA 2340); ATCC-BAA 2340) [µM]	MBC, K. pneumoniae (ATCC BAA-2342) [2] [µM]	MIC, K. pneumoniae (ATCC BAA-2342) [2] [µM]	MBC, E. coli (ATCC BAA-2340) (E. coli ATCC BAA-2340) [µM]	MIC, E. coli (ATCC BAA-2340) (E. coli ATCC BAA-2340) [µM]	MBC, P. aeruginosa (ATCC 9027) [3]	MIC, P. aeruginosa (ATCC 9027) [3]	MBC, E. coli (NCTC 13846) (E. coli NCTC 13846) [µM]	MIC, E. coli (NCTC 13846) (E. coli NCTC 13846) [µM]	HC10 (horse red blood cells) [µM]	GM MIC Gram-Positive (Gram-positive bacteria) [µM]	MBC, E. coli (ATCC 8739) ([7]; ATCC 8739) [µM]	MBC, MRSA (NCTC 12493) (MRSA NCTC 12493) [µM]	MIC, MRSA (NCTC 12493) (MRSA NCTC 12493) [µM]	further results
CC[C@H](C)[C@H](NC(=O)[C@H](CCCCN)NC(=O)[C@@H]1CCCN1C(=O)[C@H](NC(=O)[C@H](NC(=O)[C@H](Cc1c[nH]cn1)NC(=O)[C@@H]1CCCN1C(=O)[C@@H](NC(=O)[C@@H](NC(=O)[C@H](CCCCN)NC(=O)[C@H](CCCCN)NC(=O)[C@H](CC(C)C)NC(=O)[C@H](CO)NC(=O)[C@H](CCCCN)NC(=O)[C@H](CC(C)C)NC(=O)[C@@H](NC(=O)[C@H](CO)NC(=O)[C@H](CC(C)C)NC(=O)[C@H](CC(C)C)NC(=O)CN)C(C)C)[C@@H](C)CC)C(C)C)C(C)C)C(C)C)C(=O)N[C@@H](C)C(=O)N[C@@H](CCC(=O)O)C(=O)N[C@@H](CCCCN)C(=O)N[C@@H](CC(C)C)C(N)=O [Caerin 1.1-LC 7.11.19K.V(D)V(D)] (H-GLLSVLKSLKKIVPH[dV][dV]PKIAEKL-NH2)	16 (≈ 41.7 µg/mL)	4 (≈ 10.4 µg/mL)	4 (≈ 10.4 µg/mL)	32 (≈ 83.5 µg/mL)	4 (≈ 10.4 µg/mL)	16 (≈ 41.7 µg/mL)	32 (≈ 83.5 µg/mL)	16 (≈ 41.7 µg/mL)	4 (≈ 10.4 µg/mL)	4 (≈ 10.4 µg/mL)	4/4 µM	4/4 µM	8 (≈ 20.9 µg/mL)	8 (≈ 20.9 µg/mL)	256	128	4 (≈ 10.4 µg/mL)	64 (≈ 167 µg/mL)	64 (≈ 167 µg/mL)	MIC, Control (E. coli (ATCC-BAA 2340); ATCC-BAA 2340): 4 µM (≈ 10.4 µg/mL); MIC, Ca^2+ (E. coli (ATCC-BAA 2340); E. coli (ATCC-BAA 2340), medium with 2 mM CaCl2): 128 µM (≈ 334 µg/mL); MIC, A. baumannii (ATCC BAA-747) [1, 15]: 32 µM (≈ 83.5 µg/mL); MBC, A. baumannii (ATCC BAA-747) [1, 16]: 128 µM (≈ 334 µg/mL); GM MIC Gram-Negative (Gram-negative bacteria): 9.75 µM; MIC, E. faecalis (NCTC 12697) [4, 15]: >128 µM; MBC, E. faecalis (NCTC 12697) [4, 16]: >128 µM; MIC, K. pneumoniae (ATCC 43816) [5, 15]: 64 µM (≈ 167 µg/mL); MBC, K. pneumoniae (ATCC 43816) [5, 16]: 128 µM (≈ 334 µg/mL); MIC, S. aureus (ATCC 6538) [6, 15]: 128 µM (≈ 334 µg/mL); MBC, S. aureus (ATCC 6538) [6, 16]: 128 µM (≈ 334 µg/mL); MIC, E. coli (ATCC 8739) ([7]; first value of MIC/MBC cell, 5 × 10^5 CFU/mL, peptide 128 to 1 μM two-fold, overnight 37 °C, absorbance, repeated three times): 2 µM (≈ 5.22 µg/mL); pIC50 ([8]; MTT, peptide 128 to 1 μM, absorbance 570 nm, triplicate, three independent repeats, NI = no inhibition activity, read-out: IC50, HEK 293): 3.89
C[C@]12CCC(=O)C=C1CC[C@@H]1[C@@H]2[C@@H](O)C[C@@]2(C)[C@H]1CC[C@]2(O)C(=O)CO [hydrocortisone]	–	–	–	–	–	–	–	–	–	–	–	–	–	–	–	–	–	–	–	TNF-α level after LPS stimulation [9]: approximately 22.3 ng/mL
GLLSVLGSLKLIVPHVVPLIAEKL-NH2 [Caerin 1.1-LC]	32	16	16	32	16	16	64	16	16	8	128 µM	64 µM	32	4	37.5	14.25	64	128	32	MIC, Ca^2+ (E. coli (ATCC-BAA 2340); ATCC-BAA 2340): 64 µM; MBC, A. baumannii (ATCC BAA-747) ([1]; ATCC BAA-747): 128 µM; MIC, A. baumannii (ATCC BAA-747) ([1]; ATCC BAA-747): 16 µM; toxicity to larvae (mortality) [10]: complete mortality by day four or five post-injection; MBC, E. faecalis (NCTC 12697) ([4]; NCTC 12697): >128 µM; MIC, E. faecalis (NCTC 12697) ([4]; NCTC 12697): >128 µM; MBC, K. pneumoniae (ATCC 43816) ([5]; ATCC 43816): 64 µM; MIC, K. pneumoniae (ATCC 43816) ([5]; ATCC 43816): 16 µM; MBC, S. aureus (ATCC 6538) ([6]; ATCC 6538): 128 µM; MIC, S. aureus (ATCC 6538) ([6]; ATCC 6538): 64 µM; MIC, E. coli (ATCC 8739) ([7]; ATCC 8739): 16 µM; pIC50 [11]: 4.21; pIC50 [12]: 4.10; pIC50 [13]: 4.83; pIC50 [14]: 5.22; pIC50 ([8]; 24 h): 4.97
